# Experimental data as given in US9242009B2, “Compositions and methods to treat neurodegenerative diseases” (The General Hospital Corporation, priority 2012, dated 2016).
# How the values were obtained:
# [1] = tested on: SH-SY5Y cells; experiment: Oxygen-glucose deprivation (OGD) of SH-SY5Y cells, viability by LDH release, MTT and CV assays; type: cell-based, Human
# Protocol: OGD for SH-SY5Y was performed by placing cells in a hypoxia chamber ([…] Technologies Inc.) for 15 hours, followed by 24 hours of reoxygenation as previously reported (FIG. 3A) (Serra-Pérez et al. (2008) Journal of Neurochemistry 106, 1237-1247). Briefly, medium was replaced with glucose-free RPMI 1640 with L-glutamine (Cellgro by Mediatech, Inc), deoxygenated with anaerobic gas mixture (93% N2-5% CO2-2% H2) for 30 minutes before use. Cells were then placed in a hypoxia chamber, flushed with anaerobic gas mixture (93% N2-5% CO2-2% H2) and incubated at 37° C. After 15 hours of hypoxia, medium was replaced with DMEM/F12 and incubated for 24 hours at 37° C. in 95% air/5% CO2 in a humidified incubator.
# A microtiter plate containing cells was centrifuged at 250×g for 10 minutes and the supernatant was used for LDH measurement with LDH Cytotoxicity Detection Kit (Roche). After aspirating the medium, remaining cells were washed with PBS, then, 100 μl of 1% Triton-X was added to each well, followed by incubation at 37° C. for 30 minutes. Medium and lysates were used for LDH measurement at wavelength 492 nm. Percentage of released LDH was calculated with following formula: {LDH (medium)/LDH (medium+cell)×100}. Average value of control (cells without OGD) was deducted as background.
# Ten μl of thiazolyl blue tetrazolium bromide solution (5 mg/ml in PH 7.4 PBS) was added to each well containing 100 μl of medium and cells, followed by incubation at 37° C. for 4 hours in the dark. Isopropanol (100 μl, 0.04 N HCl) was added to dissolve blue dye. After dissolved completely, absorbance was measured with plate-reader (Synergy 2, BioTek Instrument) at test wavelength 570 nm and reference wavelength 670 nm. Cell viability was determined by absorbance at 570 nm and reported as ratio to control cells (without OGD).
# After aspirating culture medium, cells were fixed and stained by 0.5% CV in 95% (v/v) ethanol for 5 minutes, then washed by tap water several times. After taking photographs, 1% sodium dodecylsulfate solution was added to each well to elute blue dye. Absorbance was measured with plate-reader at 595 nm of wavelength. Values were shown as ratio to control (cells without OGD).
# [2] = tested on: murine primary cortical neurons; experiment: Oxygen-glucose deprivation (OGD) of murine primary cortical neurons, LDH release; type: cell-based, mice
# Protocol: Primary neuronal cultures were prepared from the cortex of embryonic day 15 C57BL6J mice. In brief, brains were harvested and the hemispheres were dissected under a microscope. The cortical neurons were dissociated in Neurobasal medium (Gibco) with B27 supplement (antioxidant plus, Gibco). The cells were seeded into 24 well plates coated with poly-D-lysine (Becton Dickinson Labware, 2×10^5 cells per well), followed by the medium-change with fresh one on the next day. The half of culture medium was replaced with Neurobasal medium witn B27 supplement (antioxidant minus) every other day, and the cultures were maintained at 37° C. in 95% air/5% CO2 in a humidified incubator. Cells were used for experiments 11 days after seeding.
# OGD for primary cortical neurons was performed with the similar protocol as above (FIG. 3B). Briefly, the culture medium was replaced with deoxygenated Neurobasal medium without glucose, and then placed in the hypoxic chamber for 2.5 hours. After OGD, the medium was replaced with Neurobasal medium with glucose and incubated for 21 hours at 37° C. in 95% air/5% CO2 in a humidified incubator. […]
# A microtiter plate containing cells was centrifuged at 250×g for 10 minutes and the supernatant was used for LDH measurement with LDH Cytotoxicity Detection Kit (Roche). […] Percentage of released LDH was calculated with following formula: {LDH (medium)/LDH (medium+cell)×100}. […]
# [3] = tested on: murine primary cortical neurons; experiment: Intracellular calcium level [Ca2+]i (Fura-2/AM) with or without glutamate; type: cell-based, mice; details: 20 μM
# [4] = tested on: SH-SY5Y; experiment: Intracellular GSH levels in SH-SY5Y (HPLC); type: cell-based, Human; details: 50 μM, 8 hours
# Protocol: Intracellular GSH level of SH-SY5Y was measured using HPLC method as previously reported (Kimura et al. (2009) Antioxidants & Redox Signaling 12, 1-13). Briefly, cells were seeded into 6 cm dishes (5×10^5 cells per dish) and treated with 50 μM H2S donors or memantine with or without 2 mM glutamate for 8 hours, followed by washing with ice-cold PBS. Cells were scraped and transferred to a microfuge tube and sonicated. Some fraction of lysate was used for protein assay. After centrifugation, 75 μl of supernatant, 26 μl of 2-(cyclohexylamino) ethanesulfonic acid (CHES, 0.5 M, PH 8.4), and 4 μl of 50 μM MBB were mixed and incubated at room temperature in dark for 30 minutes. Acetic acid (100 μl, 30% v/v) was added, followed by centrifugation at 15,000×g for 10 min after 5 min incubation of the tube on ice. The supernatant was analyzed using HPLC at wavelength of λex=370 nm and λem=486 nm.
# [5] = tested on: phosphorylated Akt at threonine 308; experiment: Immunoblot of phosphorylated Akt in SH-SY5Y after OGD; type: cell-based, Human; details: 50 μM added 8 hours after end of OGD
# [6] = Plasma and cerebral sulfide levels of mice after intraperitoneal administration; type: in vivo; details: 25 μmol/kg intraperitoneal, 90 minutes after administration
# Description: Blood was drawn from left ventricle and centrifuged to collect the plasma. After perfusion with Tris-HCl buffer via left ventricle, brain was harvested, homogenized in Tris-HCl, and centrifuged. Plasma and supernatant of brain homogenate were derivatized with MBB and analyzed by HPLC.
# [7] = tested on: phosphorylated tau protein at serine 202 and threonine 205; experiment: LPS-induced tau phosphorylation in mice hippocampus (immunoblot); type: in vivo; details: 90 μmol/kg pretreatment
# [8] = tested on: Aβ1-42; details: LPS challenge for 7 days
# [9] = tested on: mice challenged with LPS; experiment: LPS-induced cognitive impairment, Morris water-maze
# [10] = time- and dose-range studies, SH-SY5Y
structure (smiles),measurement,setting,value
"C[C@]12C[C@@H]3C[C@](C)(C1)C[C@@](NC(=O)c1ccc(-c4cssc4=S)cc1)(C3)C2 [S-memantine, N-((1r,3R,5S,7r)-3,5-dimethyladamantan-1-yl)-4-(3-thioxo-3H-1,2-dithiol-4-yl)-benzamide]","Cell viability after OGD (LDH release, MTT, CV assays)","[1]; 50 μM added 8 hours after the end of OGD, 15 hours OGD, 24 hours reoxygenation",improved the viability of SH-SY5Y cells more markedly than did addition of ACS48 or memantine
same,Cell viability after OGD,[1]; incubation starting at any time between pre-OGD and up to 8 hours after OGD,improved
same,Most effective dose to improve viability after OGD,[1]; [10],50 µM
same,Most effective time point of addition after the end of OGD,[1]; [10],8 h
same,Neuroprotective effect after OGD (LDH release),"[2]; 50 μM added 30 minutes after end of OGD, 2.5 hours OGD, 21 hours reoxygenation",more robust neuroprotective effects compared to ACS48 or memantine
same,Cell viability after OGD,[2]; incubation starting at 30 minutes or 2 hours after OGD,improved
same,Glutamate-induced calcium accumulation,[3]; 100 μM glutamate,suppressed calcium accumulation
same,Magnitude of calcium accumulation compared with Na2S or ACS48,[3]; without glutamate,markedly smaller than that induced by Na2S or ACS48
same,Magnitude of increase of GSH levels compared with Na2S or ACS48,[4],greater than with Na2S or ACS48
same,Intracellular GSH levels,[4]; with 2 mM glutamate,restored intracellular GSH levels
same,Intracellular GSH levels,[4]; without glutamate,increased intracellular GSH levels
same,Akt phosphorylation after OGD,[5],did not affect Akt phosphorylation
same,Cerebral sulfide levels,[6],increased
same,Plasma sulfide levels,[6],increased plasma sulfide levels
same,LPS-induced tau phosphorylation at serine 202 and threonine 205 in mice hippocampus,[7],prevented LPS-induced tau phosphorylation
same,"Aβ1-42 accumulation in mice cortex, or hippocampus",[8]; 90 μmol/kg pretreatment,prevented Aβ1-42 accumulation
same,Prevention of Aβ1-42 accumulation compared with memantine,[8],prevented Aβ1-42 accumulation more markedly than did memantine
same,Swimming speed in Morris water-maze test,[9]; 90 μmol/kg i.p.,did not change it
same,Latency until getting platform in Morris water-maze test,"[9]; 90 μmol/kg i.p. 30 min before LPS, 4 hours after LPS-challenge",improved latency
